Experimental data: PubChem BioAssay AID330 (DTP/NCI, 2004)
Values joined by “and” are separate entries in the source; they are usually repeats but may differ in a detail not shown here. Identical values can stand only once. Toxic doses and inconclusive results are not listed. Rule for the calls: active = survival T/C of 150% or more; inactive = T/C below 125% in these data. Peptide text beside a SMILES is read from it.

Tested on: P388 leukemia ip, CD2F1 mice, survival T/C
Experiment: NCI In Vivo Anticancer Drug Screen. Data for tumor model P388 Leukemia (intraperitoneal) in CD2F1 (CDF1) mice
Conditions: endpoint: median survival time, higher = longer survival
Procedure, shortened: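 Mice carrying the transplanted tumor received test compound or vehicle. Survival was recorded in each group, and the value is the treated-group measurement divided by that of the vehicle-treated control group.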

[1] = dose: 60.0 mg/kg/injection, schedule: Q01DX005 (ip), vehicle: saline with Tween-80
[2] = dose: 120.0 mg/kg/injection, schedule: Q01DX005 (ip), vehicle: saline with Tween-80
[3] = dose: 240.0 mg/kg/injection, schedule: Q01DX005 (ip), vehicle: saline with Tween-80
[4] = dose: 60.0 mg/kg/injection, schedule: Q01DX005 (ip), vehicle: Klucel (hydroxypropylcellulose) (HPC)
[5] = dose: 50.0 mg/kg/injection, schedule: Q01DX005 (ip), vehicle: Klucel (hydroxypropylcellulose) (HPC)
[6] = dose: 100.0 mg/kg/injection, schedule: Q01DX005 (ip), vehicle: Klucel (hydroxypropylcellulose) (HPC)
[7] = dose: 200.0 mg/kg/injection, schedule: Q01DX005 (ip), vehicle: Klucel (hydroxypropylcellulose) (HPC)
[8] = dose: 12.5 mg/kg/injection, schedule: Q01DX005 (ip), vehicle: Klucel (hydroxypropylcellulose) (HPC)
[9] = dose: 25.0 mg/kg/injection, schedule: Q01DX005 (ip), vehicle: Klucel (hydroxypropylcellulose) (HPC)
[10] = dose: 50.0 mg/kg/injection, schedule: Q01DX005 (ip), vehicle: saline with Tween-80
[11] = dose: 100.0 mg/kg/injection, schedule: Q01DX005 (ip), vehicle: saline with Tween-80
[12] = dose: 50.0 mg/kg/injection, schedule: Q01DX009 (ip), vehicle: saline with Tween-80
[13] = dose: 100.0 mg/kg/injection, schedule: Q01DX009 (ip), vehicle: saline with Tween-80
[14] = dose: 200.0 mg/kg/injection, schedule: Q01DX009 (ip), vehicle: saline with Tween-80
[15] = dose: 400.0 mg/kg/injection, schedule: Q01DX009 (ip), vehicle: saline with Tween-80

Measured: T/C

CC(CN)OCc1ccccc1 (stereo not drawn)
inactive: dose: 12.5 mg/kg/injection, schedule: Q04DX003 (ip), vehicle: saline 95 % of control | dose: 25.0 mg/kg/injection, schedule: Q04DX003 (ip), vehicle: saline 100 % of control | dose: 50.0 mg/kg/injection, schedule: Q04DX003 (ip), vehicle: saline 100 % of control

COc1cc(C(c2cc3c(cc2O)OCO3)N2CCN(C(c3ccc(O)c(OC)c3)c3cc4c(cc3O)OCO4)CC2)ccc1O (stereo not drawn)
inactive: [1] 89 % of control | [2] 92 % of control | [3] 95 % of control

COC(=O)/C=C/c1cc(=O)n2c(nc3ccccc32)s1
inactive: dose: 15.0 mg/kg/injection, schedule: Q01DX005 (ip), vehicle: Klucel (hydroxypropylcellulose) (HPC) 100 % of control | dose: 30.0 mg/kg/injection, schedule: Q01DX005 (ip), vehicle: Klucel (hydroxypropylcellulose) (HPC) 89 % of control | [4] 86 % of control

C[n+]1cccc(Oc2ccc[n+](C)c2)c1
inactive: [1] 100 % of control | [2] 99 % of control | [3] 109 % of control

COc1cccc2c1C(=O)c1ccccc1-2
inactive: [5] 102 % of control | [6] 102 % of control | [7] 91 % of control

CC1COCCOCCOCC(C)OC(=O)CSCC(=O)O1 (stereo not drawn)
inactive: dose: 100.0 mg/kg/injection, schedule: Q04DX003 (ip), vehicle: saline 100 % of control | dose: 200.0 mg/kg/injection, schedule: Q04DX003 (ip), vehicle: saline 104 % of control | dose: 400.0 mg/kg/injection, schedule: Q04DX003 (ip), vehicle: saline 92 % of control

COC(=O)Cn1/c(=N\N=C(/C)c2ccc([N+](=O)[O-])cc2)sc2ccccc21
inactive: dose: 12.5 mg/kg/injection, schedule: Q01DX001 (ip), vehicle: saline with Tween-80 92 % of control | dose: 25.0 mg/kg/injection, schedule: Q01DX001 (ip), vehicle: saline with Tween-80 89 % of control | dose: 50.0 mg/kg/injection, schedule: Q01DX001 (ip), vehicle: saline with Tween-80 89 % of control | dose: 400.0 mg/kg/injection, schedule: Q01DX001 (ip), vehicle: saline with Tween-80 88 % of control

C[CH2][Ge]([CH2]C)[CH2]C.C[CH2][Ge]([CH2]C)[CH2]C.[CH3][Ge][CH3]
inactive: dose: 50.0 mg/kg/injection, schedule: Q01DX009 (ip), vehicle: saline 90 % of control | dose: 100.0 mg/kg/injection, schedule: Q01DX009 (ip), vehicle: saline 90 % of control | dose: 200.0 mg/kg/injection, schedule: Q01DX009 (ip), vehicle: saline 92 % of control

[Fe].[c-]1[c-][c-][c-](CNc2ncnc3nc[nH]c23)[c-]1.[c-]1[c-][c-][cH-][c-]1
inactive: [8] 97 % of control | [9] 100 % of control | [5] 86 % of control | [6] 91 % of control

COc1cc(C(=O)CC(=O)Cc2ccc3ccccc3n2)cc(OC)c1OC
inactive: dose: 0.93 mg/kg/injection, schedule: Q01DX005 (ip), vehicle: saline with Tween-80 102 % of control | dose: 1.88 mg/kg/injection, schedule: Q01DX005 (ip), vehicle: saline with Tween-80 103 % of control | dose: 3.75 mg/kg/injection, schedule: Q01DX005 (ip), vehicle: saline with Tween-80 98 % of control | [2] 90 % of control | [3] 97 % of control

Nc1nnc(/C=C/c2ccc(Cl)c(Cl)c2)o1
inactive: [1] 95 % of control | [2] 103 % of control | [3] 102 % of control

CC(C)CCCCCCCCCCCCC(=O)NCC(=O)NC1C(C)OC(Nc2ncnc3c2ncn3C)C(O)C1O (stereo not drawn)
inactive: dose: 1.56 mg/kg/injection, schedule: Q01DX009 (ip), vehicle: distilled water + Tween-80 98 % of control | dose: 3.13 mg/kg/injection, schedule: Q01DX009 (ip), vehicle: distilled water + Tween-80 95 % of control | dose: 6.25 mg/kg/injection, schedule: Q01DX009 (ip), vehicle: distilled water + Tween-80 101 % of control | dose: 12.5 mg/kg/injection, schedule: Q01DX009 (ip), vehicle: distilled water + Tween-80 98 % of control | dose: 25.0 mg/kg/injection, schedule: Q01DX009 (ip), vehicle: distilled water + Tween-80 90 % of control | dose: 50.0 mg/kg/injection, schedule: Q01DX009 (ip), vehicle: distilled water + Tween-80 91 % of control

O=C(O)CNC(CO)(CO)CO
inactive: dose: 60.0 mg/kg/injection, schedule: Q01DX005 (ip), vehicle: saline 102 % of control | dose: 120.0 mg/kg/injection, schedule: Q01DX005 (ip), vehicle: saline 100 % of control | dose: 240.0 mg/kg/injection, schedule: Q01DX005 (ip), vehicle: saline 97 % of control

NC(=O)N/N=C1/CCC(OCc2ccccc2)CC1CC(=O)O (stereo not drawn)
inactive: [10] 102 % of control | [11] 105 % of control | dose: 200.0 mg/kg/injection, schedule: Q01DX005 (ip), vehicle: saline with Tween-80 96 % of control

COc1c(C)n(CCCCCCn2ccc(=O)c(OC)c2C)ccc1=O
inactive: [5] 92 % of control | [6] 108 % of control | [7] 93 % of control

Cn1cccc1C1NC(=O)C(c2cccn2C)NC1=O (stereo not drawn)
inactive: [5] 95 % of control | [6] 96 % of control | [7] 92 % of control

CSc1ccnc2ccccc12
inactive: dose: 12.5 mg/kg/injection, schedule: Q01DX009 (ip), vehicle: other 103 % of control | dose: 25.0 mg/kg/injection, schedule: Q01DX009 (ip), vehicle: other 118 % of control | dose: 50.0 mg/kg/injection, schedule: Q01DX009 (ip), vehicle: other 114 % of control

COC(=O)C(CCCN=C(N)N)NC(=O)C(N)CCCCN (stereo not drawn) (H-Lys-Arg-OMe; configuration not given here)
inactive: [1] 100 % of control | [2] 100 % of control | [3] 100 % of control

CC(=O)OCC12C=CC(O1)C1C(=O)OC(=O)C12 (stereo not drawn)
inactive: [10] 94 % of control | [11] 88 % of control

CCCCN(CCCC)CCNc1ccc(C)c2sc3cc(Cl)ccc3c(=O)c12
inactive: [8] 95 % of control | [9] 101 % of control | [5] 99 % of control and 101 % of control | [6] 96 % of control

Cc1ccc2cccc([N+](=O)[O-])c2n1
inactive: dose: 12.5 mg/kg/injection, schedule: Q04DX003 (ip), vehicle: saline with Tween-80 100 % of control | dose: 25.0 mg/kg/injection, schedule: Q04DX003 (ip), vehicle: saline with Tween-80 104 % of control | dose: 50.0 mg/kg/injection, schedule: Q04DX003 (ip), vehicle: saline with Tween-80 95 % of control

CN(C)c1ccc(/C=N/NC(=O)C(O)(c2ccccc2)c2ccccc2)cc1
inactive: [1] 102 % of control | [2] 102 % of control | [3] 96 % of control

O=C1O/C(=C2/OC(=O)c3ccccc32)c2ccccc21
inactive: dose: 3.13 mg/kg/injection, schedule: Q01DX009 (ip), vehicle: saline with Tween-80 94 % of control | dose: 6.25 mg/kg/injection, schedule: Q01DX009 (ip), vehicle: saline with Tween-80 100 % of control | dose: 12.5 mg/kg/injection, schedule: Q01DX009 (ip), vehicle: saline with Tween-80 100 % of control and 91 % of control | dose: 25.0 mg/kg/injection, schedule: Q01DX009 (ip), vehicle: saline with Tween-80 100 % of control | [12] 88 % of control | [13] 88 % of control | [14] 90 % of control | [15] 92 % of control

NS(=O)(=O)c1cc(Cl)cc(Cl)c1O
inactive: [12] 100 % of control | [13] 120 % of control

Cc1cc2c(c(C(C)(C)C)c1)OC(=O)/C2=C1/C(=O)Oc2c1cc(C)cc2C(C)(C)C
inactive: dose: 1.87 mg/kg/injection, schedule: Q01DX005 (ip), vehicle: Klucel (hydroxypropylcellulose) (HPC) 112 % of control | dose: 3.75 mg/kg/injection, schedule: Q01DX005 (ip), vehicle: Klucel (hydroxypropylcellulose) (HPC) 101 % of control | dose: 7.5 mg/kg/injection, schedule: Q01DX005 (ip), vehicle: Klucel (hydroxypropylcellulose) (HPC) 94 % of control | [4] 90 % of control

CC(C)C[C@H]1C(=O)N2CCC[C@H]2[C@]2(O)O[C@](NC(=O)[C@@H]3C=C4c5cccc6[nH]c(Br)c(c56)C[C@H]4N(C)C3)(C(C)C)C(=O)N12
inactive: [12] 100 % of control | [13] 100 % of control | [14] 100 % of control

N#Cc1ccccc1CC(O)(c1ccccc1)c1ccccc1
inactive: [13] 99 % of control | [14] 100 % of control | [15] 91 % of control
